Experimental data published in patent US11179397B2, “Imidazopyrimidine derivatives” (Gilead Sciences, Inc., priority 2018, dated 2021).
Where two headings read alike, the source gives them in different places.

Key:
[1] = target: SHP-2 full length protein (Homo sapiens (Human), UniProt Q06124); test: SHP-2 biochemical DiFMUP pseudosubstrate-fluorogenic assay; settings: 0.2 nM SHP-2, 1 μM IRS-1 activator peptide, 50 μM DiFMUP; read-out: SHP2 IC50
How it was run: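 In-house recombinant full-length SHP-2 preincubated 90 min at room temperature with compounds (1:3 series, 10,000–0.005 nM), then DiFMUP substrate added at 50 μM final for 30 min more. Fluorescence normalised to DMSO wells (100%) and IC50 derived by curve fitting.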

NCI-H358 cells = test: NCI-H358 3D tumor spheroid growth inhibition; assay type: cell-based; settings: Homo sapiens, NCI-H358, 168 h, read-out: H358 EC50
How it was run: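 Cells seeded at 1000/well in ultra-low-attachment plates at 37 °C, 5% CO2 to form spheroids, then incubated a further 7 days with compounds. Viability by 3D CellTiter Glo luminescence; % inhibition versus DMSO wells, with normalized cellular IC50 reported as EC50.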

[2] = 3D spheroids, 7 days, 3D CellTiter Glo, cellular IC50 designated EC50

Chain of SHP-2 full length protein (Q06124 whole entry): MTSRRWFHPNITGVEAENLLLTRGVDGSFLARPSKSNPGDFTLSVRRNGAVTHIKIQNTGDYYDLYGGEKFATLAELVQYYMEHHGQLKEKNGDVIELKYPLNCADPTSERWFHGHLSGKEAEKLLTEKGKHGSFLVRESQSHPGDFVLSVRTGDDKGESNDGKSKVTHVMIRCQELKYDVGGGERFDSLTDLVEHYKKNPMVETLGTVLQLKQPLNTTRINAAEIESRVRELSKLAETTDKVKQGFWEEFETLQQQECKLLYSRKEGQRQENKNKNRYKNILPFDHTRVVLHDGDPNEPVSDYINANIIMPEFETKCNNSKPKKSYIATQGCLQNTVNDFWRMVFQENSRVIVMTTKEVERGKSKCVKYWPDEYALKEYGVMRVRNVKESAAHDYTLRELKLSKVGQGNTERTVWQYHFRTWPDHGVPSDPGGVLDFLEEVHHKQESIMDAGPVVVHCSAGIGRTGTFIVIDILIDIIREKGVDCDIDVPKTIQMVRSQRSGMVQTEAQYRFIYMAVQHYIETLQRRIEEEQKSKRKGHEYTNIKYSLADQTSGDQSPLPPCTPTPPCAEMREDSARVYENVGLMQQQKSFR

Compound	IC50 [1] [nM]	EC50 (NCI-H358 cells; [2]) [nM]	EC50 (NCI-H358 cells) [nM]
C[C@@H]1OCC2(CCN(c3ncc(Sc4cc(N)nc5ccccc45)c4nccn34)CC2)[C@@H]1N [Example 111, (3S,4S)-8-(8-((2-aminoquinolin-4-yl)thio)imidazo[1,2-c]pyrimidin-5-yl)-3-methyl-2-oxa-8-azaspiro[4.5]decan-4-amine]	7.1	170	–
CC(=O)Nc1cccc2c(Sc3cnc(N4CCC5(CC4)CO[C@@H](C)[C@H]5N)n4ccnc34)ccnc12 [Example 112, N-(4-((5-((3S,4S)-4-amino-3-methyl-2-oxa-8-azaspiro[4.5]decan-8-yl)imidazo[1,2-c]pyrimidin-8-yl)thio)quinolin-8-yl)acetamide]	10	56	–
C[C@@H]1OCC2(CCN(c3ncc(Sc4ccnc5c(C(N)=O)cccc45)c4nccn34)CC2)[C@@H]1N [Example 113, 4-((5-((3S,4S)-4-amino-3-methyl-2-oxa-8-azaspiro[4.5]decan-8-yl)imidazo[1,2-c]pyrimidin-8-yl)thio)quinoline-8-carboxamide]	11	340	–
C[C@@H]1OCC2(CCN(c3ncc(Sc4ccnc5ccccc45)c4nccn34)CC2)[C@@H]1N [Example 114, (3S,4S)-3-methyl-8-(8-(quinolin-4-ylthio)imidazo[1,2-c]pyrimidin-5-yl)-2-oxa-8-azaspiro[4.5]decan-4-amine]	6.8	64	–
C[C@@H]1OCC2(CCN(c3ncc(Sc4ccnc5ccc(F)cc45)c4nccn34)CC2)[C@@H]1N [Example 115, (3S,4S)-8-(8-((6-fluoroquinolin-4-yl)thio)imidazo[1,2-c]pyrimidin-5-yl)-3-methyl-2-oxa-8-azaspiro[4.5]decan-4-amine]	8.4	90	–
C[C@@H]1OCC2(CCN(c3ncc(Sc4ccnc5cc(F)ccc45)c4nccn34)CC2)[C@@H]1N [Example 116, (3S,4S)-8-(8-((7-fluoroquinolin-4-yl)thio)imidazo[1,2-c]pyrimidin-5-yl)-3-methyl-2-oxa-8-azaspiro[4.5]decan-4-amine]	8	72	–
C[C@@H]1OCC2(CCN(c3ncc(Sc4ncnc5ccccc45)c4nccn34)CC2)[C@@H]1N [Example 117, (3S,4S)-3-methyl-8-(8-(quinazolin-4-ylthio)imidazo[1,2-c]pyrimidin-5-yl)-2-oxa-8-azaspiro[4.5]decan-4-amine]	> 10000	> 12500	–
NCC1CCN(c2ncc(Sc3cccc(Cl)c3Cl)c3nccn23)CC1 [Example 119, (1-(8-((2,3-dichlorophenyl)thio)imidazo[1,2-c]pyrimidin-5-yl)piperidin-4-yl)methanamine]	73	2200	–
C[C@@H]1OCC2(CCN(c3ncc(Sc4ccc(C(N)=O)c5ccccc45)c4nccn34)CC2)[C@@H]1N [Example 120, 4-((5-((3S,4S)-4-amino-3-methyl-2-oxa-8-azaspiro[4.5]decan-8-yl)imidazo[1,2-c]pyrimidin-8-yl)thio)-1-naphthamide]	26	500	–
Nc1nccc(Sc2cnc(N3CCC4(CC3)Cc3ccccc3[C@H]4N)n3ccnc23)c1Cl [Example 121, (S)-1′-(8-((2-amino-3-chloropyridin-4-yl)thio)imidazo[1,2-c]pyrimidin-5-yl)-1,3-dihydrospiro[indene-2,4′-piperidin]-1 amine]	4.8	–	4.2
C[C@@H]1OCC2(CCN(c3ncc(Sc4ccnc5c(F)cccc45)c4nccn34)CC2)[C@@H]1N [Example 122, (3S,4S)-8-(8-((8-fluoroquinolin-4-yl)thio)imidazo[1,2-c]pyrimidin-5-yl)-3-methyl-2-oxa-8-azaspiro[4.5]decan-4-amine]	9.1	70	–
COc1ccc2c(Sc3cnc(N4CCC5(CC4)CO[C@@H](C)[C@H]5N)n4ccnc34)ccnc2c1 [Example 123, (3S,4S)-8-(8-((7-methoxyquinolin-4-yl)thio)imidazo[1,2-c]pyrimidin-5-yl)-3-methyl-2-oxa-8-azaspiro[4.5]decan-4-amine]	6.8	95	–
NC1Cc2ccccc2C12CCN(c1ncc(Sc3cccc(Cl)c3Cl)c3nccn13)CC2 (centres unmarked) [Example 124, 1′-(8-((2,3-dichlorophenyl)thio)imidazo[1,2-c]pyrimidin-5-yl)-2,3-dihydrospiro[indene-1,4′-piperidin]-2-amine]	23	750	–
C[C@@H]1OCC2(CCN(c3ncc(Sc4ccnc5cnccc45)c4nccn34)CC2)[C@@H]1N [Example 126, (3S,4S)-8-(8-((1,7-naphthyridin-4-yl)thio)imidazo[1,2-c]pyrimidin-5-yl)-3-methyl-2-oxa-8-azaspiro[4.5]decan-4-amine]	15	120	–
C[C@@H]1OCC2(CCN(c3ncc(Sc4ccnc5ccc(C#N)cc45)c4nccn34)CC2)[C@@H]1N [Example 127, 4-((5-((3S,4S)-4-amino-3-methyl-2-oxa-8-azaspiro[4.5]decan-8-yl)imidazo[1,2-c]pyrimidin-8-yl)thio)quinoline-6-carbonitrile]	30	270	–
C[C@@H]1OCC2(CCN(c3ncc(Sc4ccnc5cccnc45)c4nccn34)CC2)[C@@H]1N [Example 128, (3S,4S)-8-(8-((1,5-naphthyridin-4-yl)thio)imidazo[1,2-c]pyrimidin-5-yl)-3-methyl-2-oxa-8-azaspiro[4.5]decan-4-amine]	14	59	–
C[C@@H]1OCC2(CCN(c3ncc(Sc4cccc5ncccc45)c4nccn34)CC2)[C@@H]1N [Example 129, (3S,4S)-3-methyl-8-(8-(quinolin-5-ylthio)imidazo[1,2-c]pyrimidin-5-yl)-2-oxa-8-azaspiro[4.5]decan-4-amine]	10	150	–
C[C@@H]1OCC2(CCN(c3ncc(Sc4ccnc5[nH]ccc45)c4nccn34)CC2)[C@@H]1N [Example 130, (3S,4S)-8-(8-((1H-pyrrolo[2,3-b]pyridin-4-yl)thio)imidazo[1,2-c]pyrimidin-5-yl)-3-methyl-2-oxa-8-azaspiro[4.5]decan-4-amine]	5.7	57	–
C[C@@H]1OCC2(CCN(c3ncc(Sc4ccnc5[nH]cnc45)c4nccn34)CC2)[C@@H]1N [Example 131, (3S,4S)-8-(8-((3H-imidazo[4,5-b]pyridin-7-yl)thio)imidazo[1,2-c]pyrimidin-5-yl)-3-methyl-2-oxa-8-azaspiro[4.5]decan-4-amine]	27	2100	–
COc1ccc2nccc(Sc3cnc(N4CCC5(CC4)CO[C@@H](C)[C@H]5N)n4ccnc34)c2c1 [Example 132, (3S,4S)-8-(8-((6-methoxyquinolin-4-yl)thio)imidazo[1,2-c]pyrimidin-5-yl)-3-methyl-2-oxa-8-azaspiro[4.5]decan-4-amine]	22	290	–
Cc1nc(N2CCC3(CC2)Cc2ccccc2[C@H]3N)n2ccnc2c1-c1cccc(Cl)c1Cl [Example 135, (S)-1′-(8-(2,3-dichlorophenyl)-7-methylimidazo[1,2-c]pyrimidin-5-yl)-1,3-dihydrospiro[indene-2,4′-piperidin]-1-amine]	5.4	14	–
C[C@@H]1OCC2(CCN(c3ncc(Sc4cccc5ccccc45)c4nccn34)CC2)[C@@H]1N [Example 136, (3S,4S)-3-methyl-8-(8-(naphthalen-1-ylthio)imidazo[1,2-c]pyrimidin-5-yl)-2-oxa-8-azaspiro[4.5]decan-4-amine]	4.3	130	–
